Test results reported in PubChem BioAssay AID723 (NMMLSC, 2007).
The source made the active and inactive calls. How the calls were made is not given here.

Biological target: N-formyl peptide receptor 2 (Homo sapiens) (UniProt P25090)
Assay: FPRL1 fluorescent ligand binding inhibitors, dose response, selectivity assay for FPR1 ligand SAR project, cell-based, flow cytometry, Ki from IC50 (AID 723)
Settings: FPRL1-expressing cells, fluorescent ligand binding competition; for Ki: measured here: Ki from IC50

Chain of N-formyl peptide receptor 2 (Homo sapiens) (P25090 whole entry, looked up): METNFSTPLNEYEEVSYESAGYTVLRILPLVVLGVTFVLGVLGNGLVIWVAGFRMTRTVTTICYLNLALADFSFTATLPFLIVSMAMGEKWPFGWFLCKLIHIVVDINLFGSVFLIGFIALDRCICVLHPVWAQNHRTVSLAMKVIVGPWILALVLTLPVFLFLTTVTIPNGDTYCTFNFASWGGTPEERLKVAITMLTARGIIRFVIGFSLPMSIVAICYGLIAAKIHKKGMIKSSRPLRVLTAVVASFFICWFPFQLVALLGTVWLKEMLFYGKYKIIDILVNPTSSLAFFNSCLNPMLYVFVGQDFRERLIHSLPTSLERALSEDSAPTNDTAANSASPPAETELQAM

O=C(C1=C(O)C(=O)N(CCc2ccccc2)C1c1ccc(Cl)cc1)c1cccs1 (stereo not drawn)
IC50: > 66.7 µM (inactive)
Ki: > 40.3 µM

CCC(C)(C(=O)NC1CCCCC1)N(Cc1cccs1)C(C)=O (stereo not drawn)
Ki: > 40.3 µM

COc1ccc(C2/C(=C(\O)c3ccccc3)C(=O)C(=O)N2c2cccc(Cl)c2)c(OC)c1 (stereo not drawn)
IC50: > 66.7 µM (inactive)
Ki: > 40.3 µM

Cc1ccc(/C(O)=C2\C(=O)C(=O)N(Cc3cccnc3)C2c2ccc(Br)cc2)cc1 (stereo not drawn)
IC50: > 66.7 µM (inactive)
Ki: > 40.3 µM

N#Cc1c(N/C(=C\C(=O)c2ccccc2)C(=O)O)sc2c1CCC2
IC50: > 66.7 µM (inactive)
Ki: > 40.3 µM

COCCCN1C(=O)C(=O)/C(=C(/O)c2ccccc2)C1c1ccc(C(C)C)cc1 (stereo not drawn)
IC50: > 66.7 µM (inactive)
Ki: > 40.3 µM

CCc1cc2c(=O)c(-c3nc4ccccc4n3C)c(C)oc2cc1OC(C)=O
Ki: > 40.3 µM

COc1ccc(C2C(C(=O)c3ccco3)=C(O)C(=O)N2CCN2CCOCC2)c(OC)c1 (stereo not drawn)
IC50: > 66.7 µM (inactive)
Ki: > 40.3 µM

COc1ccc(OC)c(CNC(=O)Cn2c(=O)sc3ccccc32)c1
Ki: > 40.3 µM

COc1ccc(OC)c(C2/C(=C(\O)c3ccccc3)C(=O)C(=O)N2c2ccc(C)c(Cl)c2)c1 (stereo not drawn)
IC50: > 66.7 µM (inactive)
Ki: > 40.3 µM

COc1cccc(/C=C2/C(=O)NN(c3ccc(C)cc3)C2=O)c1
Ki: > 40.3 µM

Cc1ccc(/C(O)=C2\C(=O)C(=O)N(c3nnc(C)s3)C2c2ccc(C(C)C)cc2)cc1 (stereo not drawn)
IC50: > 66.7 µM (inactive)
Ki: > 40.3 µM

COc1ccc(-c2c(C(F)(F)F)oc3cc(OC(=O)c4ccco4)ccc3c2=O)cc1OC
Ki: > 40.3 µM

CCCCCCN1C(=O)C(=O)/C(=C(\O)c2ccccc2)C1c1ccc(O)c(OC)c1 (stereo not drawn)
IC50: > 66.7 µM (inactive)
Ki: > 40.3 µM

Cc1cccc(C)c1NC(=O)C(NC(=O)Cc1cccs1)c1ccccc1 (stereo not drawn)
Ki: > 40.3 µM

COCCN1C(=O)C(=O)/C(=C(/O)c2ccccc2)C1c1ccc(C(C)C)cc1 (stereo not drawn)
IC50: > 66.7 µM (inactive)
Ki: > 40.3 µM

COc1ccc(-c2c(C(F)(F)F)oc3c(CN4CCOCC4)c(O)ccc3c2=O)cc1OC
Ki: > 40.3 µM

COc1ccc(/C(O)=C2/C(=O)C(=O)NC2c2ccc(OC)cc2OC)cc1 (stereo not drawn)
IC50: > 66.7 µM (inactive)
Ki: > 40.3 µM

COc1ccc(C2C(C(=O)c3cc4ccccc4o3)=C(O)C(=O)N2CCN(C)C)cc1OC (stereo not drawn)
IC50: > 66.7 µM (inactive)
Ki: > 40.3 µM

COc1ccc(C2C(C(=O)c3cccs3)=C(O)C(=O)N2CCCn2ccnc2)cc1 (stereo not drawn)
IC50: > 66.7 µM (inactive)
Ki: > 40.3 µM

COc1cccc(-c2ccnc3[nH]n(-c4ccccc4)c(=O)c23)c1
Ki: > 40.3 µM

O=C1CC(c2ccccc2C(F)(F)F)C2=C(CC(c3cccs3)CC2=O)N1 (stereo not drawn)
Ki: > 40.3 µM

O=C1C(=O)N(c2ccc(F)cc2)C(c2ccc(Br)cc2)/C1=C(/O)c1ccccc1 (stereo not drawn)
IC50: > 66.7 µM (inactive)
Ki: > 40.3 µM

O=C(C1=C(O)C(=O)N(CCCn2ccnc2)C1c1cccnc1)c1ccco1 (stereo not drawn)
IC50: > 66.7 µM (inactive)
Ki: > 40.3 µM

COc1ccc(C2C(C(=O)c3ccco3)=C(O)C(=O)N2CCCN2CCOCC2)cc1OC (stereo not drawn)
IC50: > 66.7 µM (inactive)
Ki: > 40.3 µM

O=C(Oc1ccc2c(=O)c(Oc3ccccc3Br)c(C(F)(F)F)oc2c1)c1cccs1
Ki: > 40.3 µM

O=C(O)C1CCCCC1C(=O)Nc1ccc(Br)cc1 (stereo not drawn)
Ki: > 40.3 µM

COc1ccc(/C(O)=C2/C(=O)C(=O)N(CCc3c[nH]c4ccccc34)C2c2ccc(C(C)C)cc2)cc1 (stereo not drawn)
IC50: > 66.7 µM (inactive)
Ki: > 40.3 µM

CC(C)c1ccc(C2/C(=C(\O)c3ccccc3)C(=O)C(=O)N2Cc2cccnc2)cc1 (stereo not drawn)
IC50: > 66.7 µM (inactive)
Ki: > 40.3 µM

COCCCN1C(=O)C(=O)/C(=C(/O)c2ccccc2)C1c1ccc(O)c(OC)c1 (stereo not drawn)
IC50: > 66.7 µM (inactive)
Ki: > 40.3 µM

COCCN1C(=O)C(=O)/C(=C(/O)c2ccccc2)C1c1cc(OC)ccc1OC (stereo not drawn)
IC50: > 66.7 µM (inactive)
Ki: > 40.3 µM

CC(C)C(=O)N(Cc1ccco1)S(=O)(=O)c1cccc2cccnc12
Ki: > 40.3 µM

COc1ccc(C2/C(=C(\O)c3ccccc3)C(=O)C(=O)N2CCCn2ccnc2)c(OC)c1 (stereo not drawn)
IC50: > 66.7 µM (inactive)
Ki: > 40.3 µM

O=C1NC(c2ccc(Br)cc2)/C(=C(\O)c2ccc(Cl)cc2)C1=O (stereo not drawn)
IC50: > 66.7 µM (inactive)
Ki: > 40.3 µM

CCCCCCOc1cccc(N2C(=O)C(=O)/C(=C(\O)c3ccccc3)C2c2cccc(F)c2)c1 (stereo not drawn)
IC50: > 66.7 µM (inactive)
Ki: > 40.3 µM

O=C(C1=C(O)C(=O)N(CCCN2CCOCC2)C1c1cccnc1)c1cc2ccccc2o1 (stereo not drawn)
IC50: > 66.7 µM (inactive)
Ki: > 40.3 µM

COc1ccc(OC)c(C2/C(=C(\O)c3ccc(C)cc3)C(=O)C(=O)N2CCC(=O)O)c1 (stereo not drawn)
IC50: > 66.7 µM (inactive)
Ki: > 40.3 µM

COc1ccccc1-c1c(C(F)(F)F)oc2cc(OC(=O)c3ccco3)ccc2c1=O
Ki: > 40.3 µM

COc1ccc(-c2c(C)[nH]n3c(=O)c4c(nc23)CCCC4)cc1
Ki: > 40.3 µM

COCCN1C(=O)C(=O)/C(=C(/O)c2ccccc2)C1c1ccccc1OC (stereo not drawn)
IC50: > 66.7 µM (inactive)
Ki: > 40.3 µM

COc1ccc(C2C(C(=O)c3cccs3)=C(O)C(=O)N2CCN2CCOCC2)c(OC)c1 (stereo not drawn)
IC50: > 66.7 µM (inactive)
Ki: > 40.3 µM

COc1ccc(-c2c(C(F)(F)F)oc3cc(OC(=O)c4cccnc4)ccc3c2=O)cc1OC
Ki: > 40.3 µM

Cc1ccc(N2C(=O)C(=O)/C(=C(\O)c3ccccc3)C2c2cccc(F)c2)cc1Br (stereo not drawn)
IC50: > 66.7 µM (inactive)
Ki: > 40.3 µM

O=C(O)CCCN1C(=O)C(=O)/C(=C(/O)c2ccccc2)C1/C=C/c1ccccc1 (stereo not drawn)
IC50: > 66.7 µM (inactive)
Ki: > 40.3 µM

O=C1C(=O)N(CN2CCOCC2)C(c2ccc(Br)cc2)/C1=C(\O)c1ccccc1 (stereo not drawn)
IC50: > 66.7 µM (inactive)
Ki: > 40.3 µM

COc1ccc(C2C(C(=O)N3CCCC(C)C3)c3ccccc3C(=O)N2C)cc1 (stereo not drawn)
Ki: > 40.3 µM

CCCC(=O)N(Cc1ccco1)S(=O)(=O)c1cccc2cccnc12
Ki: > 40.3 µM

COc1cc(C2C(C(C)=O)=C(O)C(=O)N2c2ccc(Br)cc2)ccc1O (stereo not drawn)
IC50: > 66.7 µM (inactive)
Ki: > 40.3 µM

O=C(Oc1ccc2c(=O)c(-c3ccccc3Cl)c(C(F)(F)F)oc2c1)c1cccs1
Ki: > 40.3 µM

Cc1nc2c(-c3ccc(Cl)cc3)c(C(F)(F)F)[nH]n2c(=O)c1Cc1ccccc1
Ki: > 40.3 µM

Cc1sc2c(c1C)c(=O)n(Cc1ccccc1)c(=O)n2Cc1ccccc1F
Ki: > 40.3 µM

CC(=O)C1=C(O)C(=O)N(CCc2c(C)[nH]c3ccccc23)C1c1cccc(F)c1 (stereo not drawn)
IC50: > 66.7 µM (inactive)
Ki: > 40.3 µM

COc1cc(C2C(C(=O)c3cc4ccccc4o3)=C(O)C(=O)N2CCN(C)C)ccc1O (stereo not drawn)
IC50: > 66.7 µM (inactive)
Ki: > 40.3 µM

O=C(C1=C(O)C(=O)N(CCCn2ccnc2)C1c1cccnc1)c1cc2ccccc2o1 (stereo not drawn)
IC50: > 66.7 µM (inactive)
Ki: > 40.3 µM

COc1ccc(OC)c(C2/C(=C(\O)c3ccccc3)C(=O)C(=O)N2c2cccnc2)c1 (stereo not drawn)
IC50: > 66.7 µM (inactive)
Ki: > 40.3 µM

Cc1cccc(C2CC(=O)NC3=C2C(=O)CC(c2cccs2)C3)c1 (stereo not drawn)
Ki: > 40.3 µM

COc1ccc(C2/C(=C(\O)c3ccc(C)cc3)C(=O)C(=O)N2Cc2cccnc2)c(OC)c1 (stereo not drawn)
IC50: > 66.7 µM (inactive)
Ki: > 40.3 µM
